Data reported in BindingDB's records for doi:10.1021/np020058m (Kyoto Pharmaceutical University, 2002).

Biological target: Aldo-keto reductase family 1 member B1 (Rattus norvegicus, UniProt P07943)
Assay: Inhibition of aldose reductase in rat lens homogenates by fluorophotometer

Structure (SMILES)	IC50
CC(=O)O[C@H]1[C@H](Oc2c(-c3ccc(O)c(O)c3)oc3cc(O)cc(=O)c-3c2O)O[C@H](CO[C@@H]2O[C@@H](C)[C@H](O)[C@@H](O)[C@H]2O)[C@@H](O)[C@@H]1O [3-O-alpha-L-rhamnopyranosyl(1->6)-2''-O-acetyl-beta-D-glucopyranoside]	18 µM
C[C@@H]1O[C@@H](O[C@H]2[C@H](Oc3c(-c4ccc(O)c(O)c4)oc4cc(O)cc(=O)c-4c3O)O[C@H](CO)[C@H](O)[C@@H]2O)[C@H](O)[C@H](O)[C@H]1O [quercetin 3-O-neohesperidoside]	18 µM
